Consider five compounds from patent US9474790B2, “Stable, protracted GLP-1/glucagon receptor co-agonists for medical use” (Novo Nordisk A/S, priority 2013, dated 2016).

Numbered stars: 1 amine (or outer) side, 2 acyl side, 3 side chain; on linkers, the order of the positions; unused ones are H or OH. Bridge positions count the residues as written; N and C are the ends. Square brackets hold non-standard residues; d marks the D form. Side chains are listed from the residue outwards. Peptide text beside a SMILES is read from it. I, II: the chains in the order shown. * marks the point of attachment. C18 diacid = O=C(O)CCCCCCCCCCCCCCCCC(=O)*; γGlu = O=C(O)[C@H](CCC(=O)[*:2])N[*:1]; Ac4c = NC1(C(=O)O)CCC1; AEEA = NCCOCCOCC(=O)O; Aib = CC(C)(N)C(=O)O

By EC50 is commonly meant the midpoint of the concentration-response curve.

The target in the assay is T1, human glucagon receptor (Homo sapiens, UniProt P47871).
T1 construct: expressed in transfected cells; host or cells: BHK cells (parent BHK570, CRE luciferase clone BHK/KZ10-20-48), clone pLJ6'-4-25
T1 sequence (P47871 26-477): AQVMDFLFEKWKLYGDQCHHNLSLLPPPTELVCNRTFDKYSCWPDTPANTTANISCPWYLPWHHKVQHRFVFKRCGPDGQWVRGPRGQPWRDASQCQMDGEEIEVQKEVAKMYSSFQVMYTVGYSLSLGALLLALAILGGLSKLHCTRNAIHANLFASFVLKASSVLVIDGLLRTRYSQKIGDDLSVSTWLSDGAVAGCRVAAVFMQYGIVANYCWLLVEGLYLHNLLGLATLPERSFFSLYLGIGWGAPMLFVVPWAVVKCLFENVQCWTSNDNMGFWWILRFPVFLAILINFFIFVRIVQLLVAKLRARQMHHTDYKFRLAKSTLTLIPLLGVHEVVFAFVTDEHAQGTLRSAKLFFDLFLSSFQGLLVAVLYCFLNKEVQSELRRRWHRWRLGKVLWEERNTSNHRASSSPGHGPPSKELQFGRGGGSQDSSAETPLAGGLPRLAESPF
In words: Glucagon receptor potency, CRE luciferase reporter gene assay in BHK cells. Type of assay: cell-based. Conditions: BHK cells expressing human glucagon receptor, read-out: EC50 GlucR. The gist of the method:
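EC50 (pM) comes from a four-parameter fit of luciferase luminescence after 3 h at 37 °C with compound at final 1×10EE-13–1×10EE-6 M. Cells: BHK570-derived line carrying human glucagon receptor plus CRE-luciferase, 5×10EE3/well, in assay medium with 2% ovalbumin, 0.2% Pluronic F-68.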
(In a reporter assay the amount or activity of a reporter protein is the signal.)
On to `CC(C)C[C@H](NC(=O)[C@H](Cc1ccc(O)cc1)NC(=O)[C@H](CCCCN)NC(=O)[C@H](CO)NC(=O)[C@H](CC(C)C)NC(=O)[C@H](CC(=O)O)NC(=O)[C@H](CO)NC(=O)[C@@H](NC(=O)[C@H](Cc1ccccc1)NC(=O)[C@@H](NC(=O)CNC(=O)[C@H](Cc1c[nH]cn1)NC(=O)C(C)(C)NC(=O)[C@@H](N)Cc1c[nH]cn1)[C@@H](C)O)[C@@H](C)O)C(=O)N[C@@H](CCC(=O)O)C(=O)N[C@@H](CO)C(=O)N[C@@H](CCCCN)C(=O)N[C@@H](CCCNC(=N)N)C(=O)N[C@@H](C)C(=O)N[C@@H](CCCNC(=N)N)C(=O)N[C@@H](CCC(=O)O)C(=O)N[C@@H](Cc1ccccc1)C(=O)N[C@H](C(=O)N[C@@H](CCC(N)=O)C(=O)N[C@@H](Cc1c[nH]c2ccccc12)C(=O)N[C@@H](CC(C)C)C(=O)N[C@@H](CC(C)C)C(=O)N[C@@H](CCCCNC(=O)CC[C@H](NC(=O)CC[C@H](NC(=O)CC[C@H](NC(=O)CCCCCCCCCCCCCCCCC(=O)O)C(=O)O)C(=O)O)C(=O)O)C(=O)N[C@H](C(N)=O)[C@@H](C)O)C(C)C` [Example 34, N^ε28-[(4S)-4-carboxy-4-[[(4S)-4-carboxy-4-[[(4S)-4-carboxy-4-(17-carboxyheptadecanoylamino)butanoyl]amino]butanoyl]amino]butanoyl]-[Aib2,His3,Leu10,Glu15,Lys17,Arg20,Glu21,Leu27,Lys28]-Glucagon amide] (H-H[Aib]HGTFTSDLSKYLESKRAREFVQWLLK([γGlu-γGlu-γGlu-C18 diacid])T-NH2; N-terminus assumed), for which the concentration for a half-maximal effect (EC50) worked out at 2.9 pM.

In the case of `CC(C)C[C@H](NC(=O)[C@H](Cc1ccc(O)cc1)NC(=O)[C@H](CCCCN)NC(=O)[C@H](CO)NC(=O)[C@H](CC(C)C)NC(=O)[C@H](CC(=O)O)NC(=O)[C@H](CO)NC(=O)[C@@H](NC(=O)[C@H](Cc1ccccc1)NC(=O)[C@@H](NC(=O)CNC(=O)[C@H](CCC(N)=O)NC(=O)C(C)(C)NC(=O)[C@@H](N)Cc1c[nH]cn1)[C@@H](C)O)[C@@H](C)O)C(=O)N[C@@H](CCC(=O)O)C(=O)N[C@@H](CO)C(=O)N[C@@H](CCCNC(=N)N)C(=O)N[C@@H](CCCNC(=N)N)C(=O)N[C@@H](C)C(=O)N[C@@H](CCCNC(=N)N)C(=O)N[C@@H](CCC(=O)O)C(=O)N[C@@H](Cc1ccccc1)C(=O)N[C@H](C(=O)N[C@@H](CCC(N)=O)C(=O)N[C@@H](Cc1c[nH]c2ccccc12)C(=O)N[C@@H](CC(C)C)C(=O)N[C@@H](CC(C)C)C(=O)N[C@@H](CCCCNC(=O)CC[C@H](NC(=O)CC[C@H](NC(=O)COCCOCCNC(=O)COCCOCCNC(=O)CC[C@H](NC(=O)CC[C@H](NC(=O)CCCCCCCCCCCCCCCCC(=O)O)C(=O)O)C(=O)O)C(=O)O)C(=O)O)C(=O)N[C@H](C(N)=O)[C@@H](C)O)C(C)C` [Example 60, N^ε28-[(4S)-4-carboxy-4-[[(4S)-4-carboxy-4-[[2-[2-[2-[[2-[2-[2-[[(4S)-4-carboxy-4-[[(4S)-4-carboxy-4-(17-carboxyheptadecanoylamino)butanoyl]amino]butanoyl]amino]ethoxy]ethoxy]acetyl]amino]ethoxy]ethoxy]acetyl]amino]butanoyl]amino]butanoyl]-[Aib2,Leu10,Glu15,Arg20,Glu21,Leu27,Lys28]-Glucagon amide] (H-H[Aib]QGTFTSDLSKYLESRRAREFVQWLLK([γGlu-γGlu-AEEA-AEEA-γGlu-γGlu-C18 diacid])T-NH2; N-terminus assumed), the concentration giving a half-maximal response (EC50) is 54 pM.

Take `CC(C)C[C@H](NC(=O)[C@H](Cc1ccc(O)cc1)NC(=O)[C@H](CCCCN)NC(=O)[C@H](CO)NC(=O)[C@H](CC(C)C)NC(=O)[C@H](CC(=O)O)NC(=O)[C@H](CO)NC(=O)[C@@H](NC(=O)[C@H](Cc1ccccc1)NC(=O)[C@@H](NC(=O)CNC(=O)[C@H](Cc1c[nH]cn1)NC(=O)C(C)(C)NC(=O)[C@@H](N)Cc1c[nH]cn1)[C@@H](C)O)[C@@H](C)O)C(=O)N[C@@H](CCC(=O)O)C(=O)N[C@@H](CO)C(=O)N[C@@H](CCCNC(=N)N)C(=O)N[C@@H](CCCNC(=N)N)C(=O)N[C@@H](C)C(=O)N[C@@H](CCCNC(=N)N)C(=O)N[C@@H](CC(=O)O)C(=O)N[C@@H](Cc1ccccc1)C(=O)N[C@H](C(=O)N[C@@H](CCC(N)=O)C(=O)N[C@@H](Cc1c[nH]c2ccccc12)C(=O)N[C@@H](CC(C)C)C(=O)N[C@@H](CC(C)C)C(=O)N[C@@H](CCCCNC(=O)CNC(=O)[C@H](CO)NC(=O)[C@H](CCC(=O)O)NC(=O)CNC(=O)[C@H](CO)NC(=O)CC[C@H](NC(=O)CC[C@H](NC(=O)CCCCCCCCCCCCCCCCC(=O)O)C(=O)O)C(=O)O)C(=O)N[C@H](C(N)=O)[C@@H](C)O)C(C)C` [Example 37, N^ε28-[2-[[(2S)-2-[[(2S)-4-carboxy-2-[[2-[[(2S)-2-[[(4S)-4-carboxy-4-[[(4S)-4-carboxy-4-(17-carboxyheptadecanoylamino)butanoyl]amino]butanoyl]amino]-3-hydroxypropanoyl]amino]acetyl]amino]butanoyl]amino]-3-hydroxypropanoyl]amino]acetyl]-[Aib2,His3,Leu10,Glu15, Arg20,Leu27,Lys28]-Glucagon amide] (I: H-H[Aib]HGTFTSDLSKYLESRRARDFVQWLLKT-NH2 / II: {C18 diacid-γGlu-γGlu}-SGESG; amide I:28-II:C; N-terminus assumed): the EC50 was 2 pM.

Turning to `CC(C)C[C@H](NC(=O)[C@H](CC(=O)O)NC(=O)[C@H](CC(C)C)NC(=O)[C@H](Cc1ccc(O)cc1)NC(=O)[C@H](CCCCN)NC(=O)[C@H](CO)NC(=O)[C@H](CC(C)C)NC(=O)[C@H](CC(=O)O)NC(=O)[C@H](CO)NC(=O)[C@@H](NC(=O)[C@H](Cc1ccccc1)NC(=O)[C@@H](NC(=O)CNC(=O)[C@H](CCC(N)=O)NC(=O)C1(NC(=O)[C@@H](N)Cc2c[nH]cn2)CCC1)[C@@H](C)O)[C@@H](C)O)C(=O)N[C@@H](CCCNC(=N)N)C(=O)N[C@@H](CCCNC(=N)N)C(=O)N[C@@H](C)C(=O)N[C@@H](CCCNC(=N)N)C(=O)N[C@@H](CCC(=O)O)C(=O)N[C@@H](Cc1ccccc1)C(=O)N[C@H](C(=O)N[C@@H](CCC(N)=O)C(=O)N[C@@H](Cc1c[nH]c2ccccc12)C(=O)N[C@@H](CC(C)C)C(=O)N[C@@H](CC(C)C)C(=O)N[C@@H](CCCCNC(=O)CC[C@H](NC(=O)CC[C@H](NC(=O)COCCOCCNC(=O)COCCOCCNC(=O)CC[C@H](NC(=O)CC[C@H](NC(=O)CCCCCCCCCCCCCCCCC(=O)O)C(=O)O)C(=O)O)C(=O)O)C(=O)O)C(=O)N[C@H](C(N)=O)[C@@H](C)O)C(C)C` [Example 49, N^ε28-[(4S)-4-carboxy-4-[[(4S)-4-carboxy-4-[[2-[2-[2-[[2-[2-[2-[[(4S)-4-carboxy-4-[[(4S)-4-carboxy-4-(17-carboxyheptadecanoylamino)butanoyl]amino]butanoyl]amino]ethoxy]ethoxy]acetyl]amino]ethoxy]ethoxy]acetyl]amino]butanoyl]amino]butanoyl]-[Acb2,Leu10,Leu16,Arg20,Glu21,Leu27,Lys28]-Glucagon amide] (H-H[Ac4c]QGTFTSDLSKYLDLRRAREFVQWLLK([γGlu-γGlu-AEEA-AEEA-γGlu-γGlu-C18 diacid])T-NH2; N-terminus assumed), the EC50 came to 4 pM.

Regarding `CC(C)C[C@H](NC(=O)[C@H](Cc1ccc(O)cc1)NC(=O)[C@H](CCCCN)NC(=O)[C@H](CO)NC(=O)[C@H](CC(C)C)NC(=O)[C@H](CC(=O)O)NC(=O)[C@H](CO)NC(=O)[C@@H](NC(=O)[C@H](Cc1ccccc1)NC(=O)[C@@H](NC(=O)CNC(=O)[C@H](CCC(N)=O)NC(=O)C(C)(C)NC(=O)[C@@H](N)Cc1c[nH]cn1)[C@@H](C)O)[C@@H](C)O)C(=O)N[C@@H](CCC(=O)O)C(=O)N[C@@H](CO)C(=O)N[C@@H](CCCNC(=N)N)C(=O)N[C@@H](CCCNC(=N)N)C(=O)N[C@@H](C)C(=O)N[C@@H](CCCNC(=N)N)C(=O)N[C@@H](CCC(=O)O)C(=O)N[C@@H](Cc1ccccc1)C(=O)N[C@H](C(=O)N[C@@H](CCC(N)=O)C(=O)N[C@@H](Cc1c[nH]c2ccccc12)C(=O)N[C@@H](CC(C)C)C(=O)N[C@@H](CC(C)C)C(=O)N[C@@H](CCCCNC(=O)CC[C@H](NC(=O)CC[C@H](NC(=O)CC[C@H](NC(=O)CCCCCCCCCCCCCCCCC(=O)O)C(=O)O)C(=O)O)C(=O)O)C(=O)N[C@H](C(N)=O)[C@@H](C)O)C(C)C` [Example 41, N^ε28-[(4S)-4-carboxy-4-[[(4S)-4-carboxy-4-[[(4S)-4-carboxy-4-(17-carboxyheptadecanoylamino)butanoyl]amino]butanoyl]amino]butanoyl]-[Aib2,Leu10,Glu15, Arg20,Glu21,Leu27,Lys28]-Glucagon amide] (H-H[Aib]QGTFTSDLSKYLESRRAREFVQWLLK([γGlu-γGlu-γGlu-C18 diacid])T-NH2; N-terminus assumed), the EC50 came to 29 pM.
